From patent US10544138B2, “Tricyclic kinase inhibitors of MELK and methods of use” (Dana-Farber Cancer Institute, Inc., priority 2015, dated 2020)

Columns and labels:
[1] = tested on: chromosome passenger complex (Survivin, Aurora B); experiment: Localization of chromosome passenger complex, immunofluorescence; type: cell-based; conditions: with nocodazole (0.33 μM) and MG132 (10 μM) 3 h
Protocol: Cell lysates were prepared for immunoblotting. […] HeLa cells were treated with DMSO or THZ-4-63-1 (5 μM) for 4 h followed by 1 h treatment of MG132 (10 μM). Cells were fixed and stained with anti-H3T3ph and anti-CREST. […] Cells were treated as in FIG. 2, Panel D, and additionally treated with MG132 (10 μM) for 1 h before fixation. The histogram indicates the quantification of H3S10ph signal. […] MCF-10A cells stably expressing empty vector (EV) or MELK were fixed for immunostaining. Images were captured with identical exposure time. H3T3ph intensity was quantified by the use of ImageJ. […] Recombinant MELK protein (kinase domain) was incubated with recombinant Histone H3 for 30 min at 30° C. Samples were subjected to immunoblotting using the indicated antibodies. […] Cells stably expressing GFP-MELK were fixed by formaldehyde and stained with anti-H3S10ph. […] Asynchronized (Async.) or nocodazole-arrested mitotic cells were subjected to fractionation, with sample prepared for immunoblotting. Panels H and I are images showing that MELK inhibition impairs the localization of chromosome passenger complex (CPC), indicated by the immunofluorescence detecting Survivin (G) and Aurora B (H). In addition to the presence of doxycyclin or THZ-4-63-1, cells were treated with nocodazole (0.33 μM) and MG132 (10 μM) for 3 h before fixation. […]

[2] = tested on: basal breast cancer cells; experiment: Proliferation of basal breast cancer cells; type: cell-based
Protocol: Mitotic cells were treated with THZ-4-63-1 at indicated concentrations for 4 h. Cells were collected for immunoblotting. Panel B contains time-lapse images of U2OS-(H2B-GFP) cells treated with THZ-4-63-1 (5 μM). […] Panel C contains blots showing proteasome-mediated degradation of Cyclin B1, Aurora B and MELK in THZ-4-63-1-induced mitotic slippage. Mitotic cells were treated as in Panel A with THZ-4-63-1 (5 μM), or MG132 (10 μM), or both for 4 h. Panel D contains a graph showing quantification of cell proliferation in the indicated breast cancer cell lines, which were treated with vehicle control or THZ-4-63-1 for one week (Top) and also contains bright-field images acquired from control cells or cells treated with THZ-4-63-1 (111 nM) (Bottom). […] Cells were treated with indicated drugs, and harvested in ten days for quantification of cell growth. The bold curve depicts the theoretic prediction of an additive action between paclitaxel and THZ-4-63-1.
With the identification of a selective MELK inhibitor, we next tested if THZ-4-63-1 is an effective agent for those cancer cells. […] The high potency of THZ-4-63-1 not only confirm the previous identification of MELK as an essential kinase for breast cancer, but also poise the compound itself for immediate translational implications.

[3] = target: T1, NUAK1 (Homo sapiens, UniProt O60285); experiment: Recombinant AMPK family kinase assay, NUAK1; type: biochemical; conditions: recombinant kinases
T1 sequence (O60285 1-661): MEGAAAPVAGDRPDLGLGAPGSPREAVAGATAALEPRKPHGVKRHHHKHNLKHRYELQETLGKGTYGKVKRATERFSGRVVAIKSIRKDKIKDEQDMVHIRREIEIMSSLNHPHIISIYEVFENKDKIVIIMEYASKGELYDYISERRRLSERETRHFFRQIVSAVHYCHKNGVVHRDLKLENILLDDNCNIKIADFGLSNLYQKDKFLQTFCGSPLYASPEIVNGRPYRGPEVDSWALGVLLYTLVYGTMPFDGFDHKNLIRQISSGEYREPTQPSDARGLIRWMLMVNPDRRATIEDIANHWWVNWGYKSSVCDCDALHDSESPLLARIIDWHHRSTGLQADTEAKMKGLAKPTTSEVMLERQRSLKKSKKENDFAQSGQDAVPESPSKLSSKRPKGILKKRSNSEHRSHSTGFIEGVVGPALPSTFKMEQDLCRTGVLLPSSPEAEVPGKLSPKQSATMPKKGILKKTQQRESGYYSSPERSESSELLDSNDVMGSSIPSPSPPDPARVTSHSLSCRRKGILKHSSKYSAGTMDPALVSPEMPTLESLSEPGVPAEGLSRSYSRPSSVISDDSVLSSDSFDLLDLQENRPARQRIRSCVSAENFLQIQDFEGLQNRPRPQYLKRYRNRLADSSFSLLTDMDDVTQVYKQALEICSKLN
Protocol: […] assays were performed with recombinant protein of the indicated mitotic kinase (left) and AMPK family kinases (right) in the presence of THZ-4-63-1. […] Cells were treated with nocodazole (100 ng/ml) for 18 h or not treated (Asyn., asynchronous). Nocodazole-arrested mitotic cells (M) were isolated via shake-off. The attached cells enriched in G2 phase (G2) were harvested. A portion of the mitotic cells were washed off nocodazole and released into G1 phase after 4 hours of incubation (G1). […] In Panel D, mitotic lysates were prepared from the indicated cells, and treated with λ-phosphatase at 30° C. In Panel E, nocodazole-arrested mitotic cells were treated with increasing concentration of THZ-4-63-1 for 30 min. Cell lysates were subjected to immunoblotting.
To discover a selective MELK inhibitor, a few molecule scaffolds with the potential of binding to MELK were identified, including 2,4-disubstituted pyrimidines and benzonaphthyridinones. […] To investigate if THZ-4-63-1 confers selective inhibition on MELK, we tested its effect on other mitotic kinases. In assays using recombinant kinases, MELK kinase activity was 20-fold more sensitive to THZ-4-63-1, than that of Aurora A, Aurora B, CDK1, or PLK1 (FIG. 1B).

[4] = tested on: MDA-MB-468 cells; experiment: Live imaging of chromosome alignment in MDA-MB-468 GFP-H2B cells; type: cell-based, human; conditions: 1 μM
Protocol: MDA-MB-468 cells stably expressing GFP-H2B were treated with vehicle control, or 1 μM THZ-4-63-1, and immediately subjected to live imaging. Time given in hours:minutes, relative to the starting point of treatment. […] Each dot represent an individual mitotic event.
To utilize this novel compound for probing the roles of MELK in mitosis, we first treated asynchronized U2OS cells with THZ-4-63-1 (1 μM), and subjected the cells for live-cell imaging. The fusion protein GFP-Histone H2B was stably introduced into the cells to facilitate observing chromosome dynamics^2,7. […] MELK inhibition also delayed mitotic progression in human breast cancer cell line, MDA-MB-468 (FIG. 6). […] Together, these findings indicate that MELK is novel regulator for the normal progression of mitosis, and that inactivation or depletion of MELK induces a metaphase-like arrest in cancer cells.

IC50 ([2]; 168 h, treated one week): ~50 nM
Selectivity for MELK over NUAK1 [3]: preferentially targets MELK
Compound: CN(C)Cc1ccc(-n2c(=O)ccc3cnc4ccc(-c5cc(Cl)c(O)c(Cl)c5)cc4c32)cc1 [THZ-4-63-1]
Centromeric localization of CPC subunits Survivin and Aurora B [1]: became diffusive
Cell death at low nanomolar dose ([2]; basal breast cancer cells): nearly complete cell death
Chromosome alignment [4]: inhibits chromosome alignment
